# Measurements: ChEMBL document CHEMBL1122674, “Aporphines. 58. N-(2-chloroethyl) [8,9-2H]norapomorphine, an irreversible ligand for dopamine receptors: synthesis and application” (J Med Chem, 1984)
# Legend:
# Dopamine receptor = test: Compound was evaluated for the competitive binding with [3H]spiperone binding to Canine striatal membranes.; set-up: species or system Canis lupus familiaris
# [1] = target: Dopamine receptor (Homo sapiens) (UniProt P14416+P35462+P21918+P21917+P21728); test: Compound was evaluated at 100 uM concentration to displace [3H]spiperone and result indicates the percent displacement.; assay type: protein assay; settings: Canis lupus familiaris
compound,measurement,setting,value
Oc1ccc2c(c1O)-c1cccc3c1[C@@H](C2)N(CCCl)CC3,IC50 app,Dopamine receptor,8 µM
same,Displacement,[1],70%
